Data taken from patent publication EP3502109A1, “TRIAZOLE-PHENYL-THIAZOLE HETEROCYCLES AS INNOVATIVE INHIBITORS OF TRYPANOTHIONE REDUCTASE AND THEIR USE AS LEISHMANICIDES” (Consejo Superior De Investigaciones Científicas, priority 2017, dated 2019).
Structures can show the parent of a compound that is named as a salt.

Experiments:
Li-TryR dimeric form [1] = biological target: T1, Li-TryR dimeric form (Leishmania infantum, UniProt A4HSF7); experiment: Dimer quantitation assay (ELISA), Li-TryR monomer displacement; type: binding
Protocol: The stability of the Li-TryR dimeric form in the presence of the compounds was evaluated using an Enzyme-Linked ImmunoSorbent Assay (ELISA). Briefly a dual (HIS/FLAG) tagged Li-TryR (400 nM) was incubated in a dimerization buffer (200 µL 300 mM NaCl, 50 mM Tris pH 8.0) for 16 h at 37 °C with agitation and in a humid atmosphere in the presence of different peptide concentration (10 to 90 µM) in 1.5ml tubes. Next, the tubes were centrifuged at 30000 rcf and supernatants were disposed in anti-flag coated 96 well plates and incubated 30 min, at 37°C with gentle shaking. Then the plates were washed ten times with TTBS (Tween 0.1%, 2 mM Tris, 138 mM NaCl 138 pH 7.6) and incubated with diluted monoclonal α-HIS HRP conjugated antibody (200 µL, Abcam, Cambridge, UK) in BSA (5%) in TTBS for 1 h at room temperature. The plates were washed once again as previously described and 1,2-phenylenediamine dihydrochloride (OPD) substrate (100 µL, Dako, Glostrup, Denmark) prepared according to manufacturer's instructions was added. The enzymatic reaction was stopped after 10 min with H2SO4 (100 µL, 0.5 M) and the absorbances were measured at 490 nm in a VERSAmax microplate reader (Molecular Devices, California, USA). All the assays were conducted in triplicate in at least three independent experiments. Data were analyzed using a non-linear regression model with the Grafit6 software (Erithacus, Horley, Surrey, UK). Table 1. IC50 ± SEM values for target compounds of formula I-A and I-B in the oxidoreductase activity assays and in the Li-TryR monomer displacement

[2] = tested on: L. infantum intracellular amastigotes; experiment: Leishmania infection assay (intracellular amastigotes in THP-1 macrophages); type: cell-based; conditions: THP-1, 48 h
Protocol: Human THP-1 monocytic cells were seeded at 1.2 x 10^5 cells/ml in 24-multidish plates (Nunc, Roskilde, Denmark) and differentiated to macrophages for 24 h in 1 ml of RPMI 1640 medium containing 10 ng/ml of phorbol 12-myristate 13-acetate (PMA) (Sigma-Aldrich, St. Louis, MO). Medium culture was removed, and 1.2 x 10^6 Leishmania amastigotes in 1 ml of THP-1 medium were added to each well. Four hours later, the medium with non-infective amastigotes was completely removed, washed 3 times with 1 phosphate-buffered saline (PBS), and replaced with new THP-1 medium and the corresponding treatment. After 48 h of treatment, medium was removed; THP-1 cells were washed 3 times with 1xPBS and detached with TrypLE Express (Invitrogen, Leiden, The Netherlands) according to the manufacturer's indications. Infection quantification was measured by flow cytometry. Drug concentrations ranged from 0.2 µM to 25 µM.

recombinant Li-TryR = recombinant Li-TryR (Leishmania infantum, UniProt A4HSF7); experiment: Li-TryR oxidoreductase activity assay; type: biochemical
Protocol: Oxidoreductase activity was determined according to the method described by Hamilton et al. (Biochem. J., 2003, 369, 529-537). Briefly, reactions were carried out at 26 °C (250 µL) of HEPES pH 8.0 (40 mM) buffer containing EDTA (1 mM), NADPH (150 µM), NADP+ (30 µM), DTNB (25 µM), T[S]2 (1 µM), glicerol (0.02%), DMSO (1.5%) and recombinant Li-TryR (7 nM). […] Enzyme activity was monitored by the increase in absorbance at 412 nm for 1 h at 26 °C in a VERSAmax microplate reader (Molecular Devices, California, USA). All the assays were conducted in triplicate in at least three independent experiments. Data were analyzed using a non-linear regression model with the Grafit6 software (Erithacus, Horley, Surrey, UK).

[3] = tested on: L. infantum promastigotes; experiment: Leishmanicidal activity on promastigotes (PI exclusion, flow cytometry); type: cell-based; conditions: Leishmania infantum, 24 h
Protocol: L. infantum promastigotes (MCAN/ES/ 89/IPZ229/1/89) were grown in RPMI-1640 medium (Sigma-Aldrich, St. Louis, MO, USA) supplemented with 10% heat-inactivated fetal calf serum (FCS), antibiotics, and 25 mm HEPES (pH 7.2) at 26 °C.
(§1) Drug treatment of amastigotes was performed during the logarithmic growth phase at a concentration of 1×10^6 parasites/mL at 37 °C for 24 h. Drug treatment of promastigotes was performed during the logarithmic growth phase at a concentration of 2×10^6 parasites/mL at 26 °C for 24 h. The percentage of living cells was evaluated by flow cytometry by the propidium iodide (PI) exclusion method.^17 Drug concentrations ranged from 0.2 µM to 25 µM.

[4] = tested on: L. infantum axenic amastigotes; experiment: Leishmanicidal activity on axenic amastigotes (PI exclusion, flow cytometry); type: cell-based; conditions: Leishmania infantum, 24 h
Protocol: L. infantum axenic amastigotes were grown in M199 (Invitrogen, Leiden, The Netherlands) medium supplemented with 10% heat inactivated FCS, 1 g/L β-alanine, 100 mg/L L-asparagine, 200 mg/L sacarose, 50 mg/L sodium pyruvate, 320 mg/L malic acid, 40 mg/L fumaric acid, 70 mg/L succinic acid, 200 mg/L α-ketoglutaric acid, 300 mg/L citric acid, 1.1 g/L sodium bicarbonate, 5 g/L MES, 0.4 mg/L hemin, 10 mg/L gentamicine pH 5.4 at 37 °C. THP-1 cells were grown in RPMI-1640 medium (Gibco, Leiden, The Netherlands) supplemented with 10% heat inactivated FCS, antibiotics, 1 mM HEPES, 2 mM glutamine and 1 mM sodium pyruvate, pH 7.2 at 37 °C and 5% CO2.
as §1

Li-TryR dimeric form [5] = biological target: T1, Li-TryR dimeric form; conditions: background, ChemBioChem, 2013, 14(10), 1212-1217; cited from earlier work
HepG2 cells = experiment: Cytotoxicity assay, HepG2 (crystal violet); type: cell-based; conditions: Homo sapiens, HepG2, 24 h
Protocol: (§2) Human THP-1 monocytic cells were seeded at 1.2 x 10^5 cells/ml in 24-multidish plates (Nunc, Roskilde, Denmark) and differentiated to macrophages for 24 h in 1 ml of RPMI 1640 medium containing 10 ng/ml of phorbol 12-myristate 13-acetate (PMA) (Sigma-Aldrich, St. Louis, MO). Human HepG2 cells were seeded at 8 x 10^5 cells/ml in 24-multidish plates (Nunc, Roskilde, Denmark). After 24 h of drug treatment, both cell lines were washed with PBS and stained with violet crystal solution (0.2% in 2% ethanol) in for 10 min. at room temperature. After dye removal, cells were washed twice with water. Once dried, the wells were treated with 1% SDS for 30 min and the absorbance at 570nm was monitored in a plate reader. Table 2. EC50± SEM values for the compounds of formula I-A and I-B on L. infantum promastigotes, extracellular and intracellular amastigotes and cytotoxic activity in macrophage-differentiated THP-1 monocytes and HepG2 cell lines

[6] = tested on: macrophage-differentiated THP-1 monocytes; experiment: Cytotoxicity assay, macrophage-differentiated THP-1 (crystal violet); type: cell-based; conditions: Homo sapiens, THP-1, 24 h; read-out: EC50 (µM) THP-1 dif
Protocol: as §2

T1 sequence (A4HSF7 entry or part of it): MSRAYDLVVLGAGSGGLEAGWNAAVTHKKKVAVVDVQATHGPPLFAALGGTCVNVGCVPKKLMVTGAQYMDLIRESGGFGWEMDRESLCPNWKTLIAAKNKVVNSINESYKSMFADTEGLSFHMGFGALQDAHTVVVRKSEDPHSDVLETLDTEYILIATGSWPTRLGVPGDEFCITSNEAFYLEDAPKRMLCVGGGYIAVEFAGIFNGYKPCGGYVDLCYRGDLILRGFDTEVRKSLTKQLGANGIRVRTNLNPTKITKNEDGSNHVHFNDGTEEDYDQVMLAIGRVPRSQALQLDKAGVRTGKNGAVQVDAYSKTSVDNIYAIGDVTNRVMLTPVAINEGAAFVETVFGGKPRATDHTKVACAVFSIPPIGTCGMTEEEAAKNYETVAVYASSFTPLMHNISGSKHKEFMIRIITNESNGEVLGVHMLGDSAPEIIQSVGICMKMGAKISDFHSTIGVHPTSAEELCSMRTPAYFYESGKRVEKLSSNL
Chain of recombinant Li-TryR (A4HSF7 entry or part of it): as above

Molecule	IC50 (Li-TryR dimeric form [1])	EC50 [2]	IC50 (recombinant Li-TryR)	EC50 [3]	EC50 [4]	Li-TryR dimerization inhibition (Li-TryR dimeric form [5])	EC50 (HepG2 cells)	EC50 [6]
CC(C)(C)Cc1csc(-c2ccc(-n3cc(CCCCN)nn3)cc2OCCN2CCNC2=O)n1 [Compound 8b, 1-(2-(5-(4-(4-Aminobutyl)-1H-1,2,3-triazol-1-yl)-2-(4-neopentylthiazol-2-yl)phenoxy)ethyl)imidazolidin-2-one 2,2,2 trifluoroacetate]	> 75 µM	30.2 ± 1.7 µM	17.2 ± 1.69 µM	45 ± 3.51 µM	18.2 ± 0.4 µM			
PEIIQSVGIS-Nle-K-Nle: 13-mer linear peptide derived from an α-helix spanning residues P435 to M447 of Li-TryR; prototype dimerization inhibitor (C-terminal Nle-K-Nle)						low micromolar range		
PKIIQSVGIS-Nle-K-Nle: 13-mer linear peptide derived from an α-helix spanning residues P435 to M447 of Li-TryR; prototype dimerization inhibitor (C-terminal Nle-K-Nle)						low micromolar range		
NCCCCc1cn(-c2ccc(-c3nc(CCc4ccc(-c5ccccc5)cc4)cs3)c(OCCN3CCNC3=O)c2)nn1 [Compound 8h, 1-(2-(2-(4-(2-([1,1'-Biphenyl]-4-yl)ethyl)thiazol-2-yl)-5-(4-(4-aminobutyl)-1H-1,2,3-triazol-1-yl)phenoxy)ethyl)imidazolidin-2-one 2,2,2 trifluoroacetate]	5.94 ± 0.99 µM		11.6 ± 2.05 µM	5.44 ± 0.44 µM	13.9 ± 0.93 µM		43.1 ± 2.65 µM	45.7 ± 0.6 µM
NCCCCc1cn(-c2ccc(-c3nc(CCc4ccc5ccccc5c4)cs3)c(OCCN3CCNC3=O)c2)nn1 [Compound 8g, 1-(2-(5-(4-(4-Aminobutyl)-1H-1,2,3-triazol-1-yl)-2-(4-(2-(naphthalen-2-yl)ethyl)thiazol-2-yl)phenoxy)ethyl)imidazolidin-2-one 2,2,2 trifluoroacetate]	11.2 ± 0.41 µM	31.2 ± 1.9 µM	6.22 ± 1.01 µM	8.79 ± 0.75 µM	23 ± 1.86 µM		33.3 ± 2.7 µM	47.6 ± 3.3 µM
C[n+]1nn(-c2ccc(-c3nc(CCc4ccc5ccccc5c4)cs3)c(OCCN3CCNC3=O)c2)cc1CCCCN [Compound 10c, 4-(4-Ammoniobutyl)-3-methyl-1-(4-(4-(2-(naphthalen-2-yl)ethyl)thiazol-2-yl)-3-(2-(2-oxoimidazolidin-1-yl)ethoxy)phenyl)-1H-1,2,3-triazol-3-ium 2,2,2-trifluoroacetate trifluoromethanesulfonate]	82.7 ± 2.4 µM		2.67 ± 0.13 µM	17.9 ± 3.76 µM	12.9 ± 0.51 µM		≥ 75 µM	≥ 75 µM
C[n+]1nn(-c2ccc(-c3nc(CCc4ccc(-c5ccccc5)cc4)cs3)c(OCCN3CCNC3=O)c2)cc1CCCCN [Compound 10e, 1-(4-(4-(2-([1,1'-Biphenyl]-4-yl)ethyl)thiazol-2-yl)-3-(2-(2-oxoimidazolidin-1-yl)ethoxy)phenyl)-4-(4-ammoniobutyl)-3-methyl-1H-1,2,3-triazol-3-ium 2,2,2-trifluoroacetate trifluoromethanesulfonate]	23.8 ± 0.96 µM	19.5 ± 1 µM	5.19 ± 0.82 µM	18.7 ± 1.26 µM	11.6 ± 1.14 µM		≥ 75 µM	21.6 ± 0.7 µM
NCCCCc1cn(-c2ccc(-c3nc(CCc4ccccc4)cs3)c(OCCN3CCNC3=O)c2)nn1 [Compound 8e, 1-(2-(5-(4-(4-Aminobutyl)-1H-1,2,3-triazol-1-yl)-2-(4-phenethylthiazol-2-yl)phenoxy)ethyl)imidazolidin-2-one 2,2,2 trifluoroacetate]		33.6 ± 1.5 µM		30.54 ± 0.16 µM	13.9 ± 0.6 µM		20.4 ± 2.37 µM	27.2 ± 1.2 µM
